The results in this text go back to ChEMBL document CHEMBL1201862, “PubChem BioAssay data set” (2004).

One assay relates to H9c2. As to the kind of experiment: cells. The class given is functional, cell-based. The conditions noted are these: Rattus norvegicus, H9c2, Myocardium.
Assay [1] is described as follows: cytotoxicity in HEK-293T cells, dose response, cytotoxicity control for BCR NF-kB inhibitor project, luminescence, B-cell screen hits (AID 489021).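 Also: HEK-293T cells carrying an NF-kB luciferase reporter; cells exposed to compound for about 14 hours before viability readout.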 Type of assay: functional, cell-based.
A short description of assay [2]: inhibitors of PGC1a acetylation in cells, dose response, cell-based, cherry-picked samples (AID 720514).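 Also: potency may reflect raised or lowered acetylation signal.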 The class given is functional.
The target of assay [3] is T1, Tyrosyl-DNA phosphodiesterase 2 (Homo sapiens, UniProt O95551).
T1 sequence (O95551 whole entry): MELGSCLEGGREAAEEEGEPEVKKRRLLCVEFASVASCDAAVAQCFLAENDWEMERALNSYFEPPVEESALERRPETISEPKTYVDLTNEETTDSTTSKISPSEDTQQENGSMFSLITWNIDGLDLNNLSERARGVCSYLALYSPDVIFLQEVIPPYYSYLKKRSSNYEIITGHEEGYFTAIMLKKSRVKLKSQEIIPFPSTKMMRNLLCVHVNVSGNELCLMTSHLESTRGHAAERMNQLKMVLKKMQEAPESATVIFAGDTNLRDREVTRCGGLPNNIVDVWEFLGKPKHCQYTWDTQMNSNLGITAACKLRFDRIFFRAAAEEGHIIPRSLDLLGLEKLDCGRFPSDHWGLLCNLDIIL
In words: human TDP2 enzyme inhibitors, dose response, biochemical, epi absorbance, IC50 (AID 743297).

The next assay has as its target T2, Caspase-6 (Homo sapiens, UniProt P55212).
T2 sequence (P55212 whole entry): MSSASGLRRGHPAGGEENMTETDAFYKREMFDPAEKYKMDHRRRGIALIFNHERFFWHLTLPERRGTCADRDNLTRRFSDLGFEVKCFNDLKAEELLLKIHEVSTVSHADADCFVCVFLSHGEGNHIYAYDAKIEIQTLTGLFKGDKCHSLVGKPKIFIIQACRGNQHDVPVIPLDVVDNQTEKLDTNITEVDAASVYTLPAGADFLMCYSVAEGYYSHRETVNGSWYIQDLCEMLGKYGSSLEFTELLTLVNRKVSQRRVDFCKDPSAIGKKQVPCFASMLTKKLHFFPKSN
In words: human caspase-6 inhibitors, dose response, biochemical, VEID-R110 fluorescence, cherry-pick (AID 720632).

Another assay has as its target Cytochrome P450 3A4 (Homo sapiens, UniProt P08684). To be noted: Potency.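 Also: confirmatory qHTS run detecting inhibitors and substrates of CYP3A4.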
A short description of assay [4]: MC4R antagonists, dose response, counter-screen for LGR2 antagonist project, cell-based, plate reader, cherry pick (AID 743444).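 Also: transfected HEK 293 cells stimulated with alpha-MSH peptide; potency of inhibitors of the alpha-MSH evoked signal.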 Type of assay: functional.
Assay [5] can be described thus: LGR2 antagonists, dose response, cell-based, HEK293, CRE-luciferase reporter, cherry pick, set 2 (AID 743343).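 Also: transfected cells were stimulated with diluted bursicon conditioned medium after compound addition.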 Type of assay: functional.
Assay [6] in a line: NIH:OVCAR-3 ovarian cancer cell cytotoxicity, dose response, PAX8 inhibitor project, plate reader, dry powder samples (AID 743044). Type of assay: functional, cell-based.
A short description of assay [7]: cytotoxicity in OVCAR8 ovarian cancer cells, dose response, PAX8 project, cell-based, plate reader, dry powder samples (AID 743197). The class given is functional. The conditions noted are these: OVCAR-8.
The next assay has as its target Paired box protein Pax-8 (Homo sapiens, UniProt Q06710). As to the kind of experiment: inhibitors of PAX8-driven TPO luciferase reporter, dose response, RMG-I cells, cherry-pick (AID 687027).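 Also: luciferase reporter driven by Pax8 target thyroperoxidase promoter measured by SteadyGlo luminescence.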 The class given is functional, cell-based.
Assay [8] is described as follows: IGROV1 ovarian cancer cell cytotoxicity, dose response, PAX8 inhibitor project, plate reader, dry powder samples (AID 743043). Type of assay: functional, cell-based. To be noted: IGROV-1.
Assay [9] concerns the target Protein-tyrosine kinase 2-beta (Homo sapiens, UniProt Q14289).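 Also: potency of inhibitors of PYK2 kinase phosphorylation of poly-GT substrate.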
The target in assay [10] is T3, Polyadenylate-binding protein 1 (Homo sapiens, UniProt P11940). As to the kind of experiment: PABP1 MLLE–PAM2 interaction inhibitors, dose response, miRNA deadenylation inhibitor project, biochemical, fluorescence polarization, Cy5-PAM2 peptide, secondary (AID 602260). The conditions noted are these: read-out: IC50_Mean. The class given is functional.
Another assay concerns the target Major prion protein (Homo sapiens, UniProt P04156). Type of assay: functional, cell-based.
The target in assay [11] is T3, Polyadenylate-binding protein 1. In words: PABP1 MLLE–PAM2 binding inhibitor potency, dose response, biochemical, fluorescence polarization, FITC-PAM2 peptide (AID 602259). Type of assay: functional. The conditions noted are these: read-out: IC50_Mean.
The nature of assay [12]: P. falciparum Dd2 growth inhibitors, dose response, SYBR Green, dry powder samples, set 9 (AID 1159568). Type of assay: functional, cell-based.
Assay [13] concerns the target T4, RNA-binding protein pos-1 (Caenorhabditis elegans, UniProt G5EF15).
T4 sequence (G5EF15 whole entry): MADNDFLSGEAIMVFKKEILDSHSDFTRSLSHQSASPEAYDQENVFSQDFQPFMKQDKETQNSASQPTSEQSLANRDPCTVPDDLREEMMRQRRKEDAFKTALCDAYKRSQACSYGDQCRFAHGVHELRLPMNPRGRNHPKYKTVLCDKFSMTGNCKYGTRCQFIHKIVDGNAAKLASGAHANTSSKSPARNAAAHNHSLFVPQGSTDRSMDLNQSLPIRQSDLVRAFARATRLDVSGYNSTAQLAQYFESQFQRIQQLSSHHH
As to the kind of experiment: inhibitors of POS-1/mex-3 RNA binding, dose response, biochemical, fluorescence polarization (AID 1964).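 Also: purified POS-1 fused to maltose binding protein made in E. coli; potency of compounds blocking POS-1 binding to fluorescent RNA.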

The target in assay [14] is T5, Zinc finger protein mex-5 (Caenorhabditis elegans, UniProt Q9XUB2).
T5 sequence (Q9XUB2 whole entry): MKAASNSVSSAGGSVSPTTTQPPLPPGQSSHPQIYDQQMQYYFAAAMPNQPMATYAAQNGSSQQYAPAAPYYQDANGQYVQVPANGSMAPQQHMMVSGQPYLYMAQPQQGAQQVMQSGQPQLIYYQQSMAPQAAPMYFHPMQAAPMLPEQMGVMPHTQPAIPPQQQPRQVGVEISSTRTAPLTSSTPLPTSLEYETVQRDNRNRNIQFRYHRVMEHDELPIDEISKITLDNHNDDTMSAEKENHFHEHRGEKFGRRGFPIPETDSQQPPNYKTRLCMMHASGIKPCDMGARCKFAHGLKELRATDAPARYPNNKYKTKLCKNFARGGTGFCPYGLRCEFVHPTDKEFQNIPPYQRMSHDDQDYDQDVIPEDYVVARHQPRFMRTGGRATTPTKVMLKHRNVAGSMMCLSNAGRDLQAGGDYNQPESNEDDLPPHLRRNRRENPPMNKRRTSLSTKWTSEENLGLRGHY
As to the kind of experiment: MEX-5/TCR-2 RNA interaction inhibitors, dose response, biochemical, C. elegans, fluorescence polarization (AID 1960).

The target of assay [15] is T6, Histone-lysine N-methyltransferase NSD2 (Homo sapiens, UniProt O96028).
T6 sequence (O96028 whole entry): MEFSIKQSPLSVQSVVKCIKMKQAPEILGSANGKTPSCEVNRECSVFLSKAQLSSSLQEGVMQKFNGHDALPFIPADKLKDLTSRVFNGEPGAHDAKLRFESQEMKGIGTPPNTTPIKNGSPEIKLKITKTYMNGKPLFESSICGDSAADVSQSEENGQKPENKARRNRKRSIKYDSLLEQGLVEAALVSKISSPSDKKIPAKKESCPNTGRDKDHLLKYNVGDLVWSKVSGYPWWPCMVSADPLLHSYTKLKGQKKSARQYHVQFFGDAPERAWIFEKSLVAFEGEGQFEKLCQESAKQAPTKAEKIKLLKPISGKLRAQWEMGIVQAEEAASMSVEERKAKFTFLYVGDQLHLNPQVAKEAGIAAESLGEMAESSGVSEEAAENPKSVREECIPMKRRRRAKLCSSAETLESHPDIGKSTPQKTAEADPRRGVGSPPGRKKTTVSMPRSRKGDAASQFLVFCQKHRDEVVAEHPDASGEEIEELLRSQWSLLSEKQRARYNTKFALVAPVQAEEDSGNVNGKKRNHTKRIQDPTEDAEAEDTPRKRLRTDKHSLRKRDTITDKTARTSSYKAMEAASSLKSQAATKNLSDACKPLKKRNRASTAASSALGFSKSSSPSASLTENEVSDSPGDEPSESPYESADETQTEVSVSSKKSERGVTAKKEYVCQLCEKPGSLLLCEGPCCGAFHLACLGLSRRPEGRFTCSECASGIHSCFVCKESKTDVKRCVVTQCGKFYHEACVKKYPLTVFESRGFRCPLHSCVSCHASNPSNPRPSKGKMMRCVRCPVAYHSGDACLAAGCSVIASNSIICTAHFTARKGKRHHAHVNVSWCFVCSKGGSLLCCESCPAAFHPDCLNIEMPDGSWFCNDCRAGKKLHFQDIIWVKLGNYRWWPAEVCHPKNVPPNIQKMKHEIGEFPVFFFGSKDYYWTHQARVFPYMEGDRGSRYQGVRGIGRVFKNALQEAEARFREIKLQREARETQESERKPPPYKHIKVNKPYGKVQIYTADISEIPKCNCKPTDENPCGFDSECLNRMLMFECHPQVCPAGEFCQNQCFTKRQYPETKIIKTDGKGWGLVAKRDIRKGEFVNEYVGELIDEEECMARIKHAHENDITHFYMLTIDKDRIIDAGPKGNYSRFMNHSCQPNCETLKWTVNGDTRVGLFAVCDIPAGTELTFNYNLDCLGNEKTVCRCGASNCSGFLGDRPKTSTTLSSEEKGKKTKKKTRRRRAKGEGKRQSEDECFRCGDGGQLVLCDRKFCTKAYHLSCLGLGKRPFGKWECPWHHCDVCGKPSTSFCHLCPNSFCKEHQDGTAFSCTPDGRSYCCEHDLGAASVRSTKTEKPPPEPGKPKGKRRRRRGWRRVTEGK
Type of assay: biochemical.

For a further assay, the target named is Large T antigen (Simian virus 40, UniProt P03070). Type of assay: functional, Betapolyomavirus macacae.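 Also: Confirmatory-stage PubChem screen for compounds that inhibit SV40 T antigen.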
Assay [16] in a line: C. albicans growth with fluconazole, confirmation, fluorescence, retest (AID 2467). Type of assay: functional, cell-based.
Assay [17] can be described thus: NIH-3T3 fibroblast cytotoxicity, dose response, cytotoxicity control, cell-based, fluorescence, Alamar Blue, secondary assay (AID 2327).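 Also: NIH-3T3 mouse fibroblasts cultured with fluconazole at 8 µg/mL.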 The class given is functional.

Calls of active or inactive are those of the source.

As to `COc1ccc(C(=O)Nc2cccc(NC(=O)c3ccc(OC)c(OC)c3)n2)cc1OC`, the IC50 was > 79 µM (inactive) in the assay on H9c2 and > 80 µM (inactive) in assay [1]. In addition, the AC50 in assay [2] is 7.99 µM (active).

`O=C(Nc1c(-c2ccc3c(c2)OCO3)[nH][nH]c1=O)c1ccccc1`: the IC50 in assay [3] was 9.43 µM (active). Besides, on Caspase-6, the AC50 is 47.5 µM (active).

For `COc1ccc(/C=C/C(=O)Nc2ccccc2C(=O)O)cc1OC`, the AC50 at Cytochrome P450 3A4 is 10 µM (inconclusive); in [4] it was 0.594 µM (active); in [5], 0.587 µM (active).

`C[C@H]1CCCCO[C@@H](CN(C)Cc2ccc(C(F)(F)F)cc2)[C@@H](C)CN([C@@H](C)CO)C(=O)c2cc(NS(=O)(=O)c3ccc(F)cc3)ccc2O1`: the AC50 is 34.2 µM (active) in [6], 51.3 µM (active) in assay [7], 6.82 µM (active) on Paired box protein Pax-8 and 39.4 µM (active) in [8].

With `Cc1nnc(NC(=O)CSc2nc(C(C)C)nc3ccccc23)s1`, the IC50 is > 138 µM (inactive) in the assay “cells”; > 69.5 µM (not active) in assay [9]; > 66 µM (inactive) in assay [10]; 1.83 µM (active) at Major prion protein; > 66 µM (inactive) in [11].

For `N#C[C@@H]1[C@H](c2ccccc2C2=CCCC2)[C@H](CO)N1C(=O)C1CCOCC1`, in assay [12], the AC50 was > 39 µM (inactive).

Regarding `C[C@@H]1CCCCO[C@@H](CN(C)C(=O)Nc2cccc3ccccc23)[C@H](C)CN([C@@H](C)CO)C(=O)c2cc(NC(=O)CCC(F)(F)F)ccc2O1`, in assay [12], the AC50 is 6.54 µM (active).

On to `Cc1cc(SC(C)C(=O)O)nc2ccccc12` (centres undefined), for which the values for the IC50 in the assay “cells” and at Major prion protein were > 138 µM (inactive) and 8.85 µM (active), respectively.

Turning to `C[C@@H]1CCCCO[C@H](CN(C)S(=O)(=O)c2ccc(F)cc2)[C@@H](C)CN([C@@H](C)CO)C(=O)c2cc(N(C)C)ccc2O1`, the concentration at half-maximal activity (AC50) in assay [12] was 2.17 µM (active).

On to `COc1ccccc1NC(=O)N1CCCCN2[C@@H](CO)[C@@H](c3ccc(C#Cc4ccccc4)cc3)[C@@H]2C1`, for which the concentration at half-maximal activity (AC50) in assay [6] was 19.3 µM (active); in [7], 35 µM (active); at Paired box protein Pax-8, 4.9 µM (active); in [8], 39 µM (active).

With `CCOc1cc(/C=C2\C(=O)NN(c3ccccc3)C2=O)cc([N+](=O)[O-])c1O`, the 50% effective concentration (EC50) was 129 µM (active) in assay [13], 36.2 µM (active) in [14], > 38 µM (not active) in assay [16] and > 160 µM (inactive) in assay [17]. The AC50 was 36.8 µM (active) on Caspase-6 and > 20 µM (inactive) in assay [15]. The IC50 at Large T antigen was > 100 µM (active).

In the case of `CCOc1ccc2nc(NCCNC(=O)Nc3ccccc3)c(C#N)cc2c1`, the AC50 in [2] is 19.5 µM (active).
